Experimental data reported in patent publication US11000555B2, “Method for preparing a limax compound and therapeutic use thereof” (GUANGXI JIUFU BIOTECHNOLOGY CO., LTD, priority 2017, dated 2021).
Like-named read-outs stand apart in the source and are kept apart here. Marks after values point to notes of the source that are not given here.

Key:
morphine-dependent mice = assay: Therapeutic effect on naloxone-induced withdrawal symptoms of morphine-dependent mice; assay type: in vivo, Kunming mice; settings: for Times of jumping reactions of mice: naloxone 8.0 mg/kg ip
Experimental: The model of morphine-dependent mice was replicated by the dose-increasing method. […] Group (1) was a blank control group, injected subcutaneously (sc) with normal saline (0.2 ml/10 g), and groups (2)˜(5) were used to replicate the model of morphine-dependent mice by the dose-increasing method.
The administration continued for 3 days for each group. Mice were free to drink and eat. Naloxone (8.0 mg/kg, ip) was given 1 h after administrations on d1 and d3 during the treatment to induce withdrawal symptoms, and jumping reaction in 30 min and body weights before and after the inducement were observed.

[1] = system: morphine-induced place preference of mice; assay: Conditioned place preference of morphine-induced mice; assay type: in vivo, Kunming mice
Experimental: The mice were acclimatized for 3 days, the natural place preference time of the mice was measured before the administration, so that the mice with obvious preference on one cuboid of the experimental box were excluded to clear the effect of unconditional place preference on the results. […] The observation was conducted under sound insulation conditions. […] Thus, the white cuboid was used as the non-preferred side (i.e., the companion box).
After 6 consecutive days of training and administration, the mice developed conditioned place preference.
Each group was administered for 3 consecutive days.

mice [2] = assay: Acetic acid writhing test of mice; assay type: in vivo, Kunming mice; settings: for Times of writhing: 0.6% acetic acid ip, in 20 min
Experimental: Forty Kunming mice, male, were fasted for 12 h before the experiment but free to drink water. They were randomly divided into 4 groups: a blank control group, a low dose Compound group, a high dose Compound group, and a positive control group. […] The mice were administered (ig) at a low dose (0.4 g/kg) and a high dose (0.8 g/kg) of the compound, at a volume of 0.2 ml per 10 g body weight. The positive control group was administered (ip) methadone (20 mg/kg) and the blank control group was given (ig) the same volume of normal saline. Forty-five minutes after administration, each mouse was given (ip) 0.6% acetic acid, 0.2 ml for each. The mice were then observed for writhing reaction, with abdominal contraction and hind limb extension or hip elevation regarded as positive. Times of writhing in 20 min were recorded starting from 5 min after acetic acid injection. The analgesic effect was evaluated by taking completely inhibiting writhing reaction induced by acetic acid as an indicator.

mice [3] = assay: Inducing the mice to sleep by a subthreshold dose of pentobarbital sodium; assay type: in vivo, Kunming mice; settings: for Number of the mice showing disappearance of righting reflex: pentobarbital sodium 30 mg/kg ip, n = 20
Experimental: Eighty Kunming mice, half males and half females, were fasted for 12 h but free to drink water. The mice were randomly divided into four groups: a blank control group, a low does Compound group (0.4 g/kg, ig), a high dose Compound group (0.8 g/kg, ig) and a positive drug control group (Estazolam, 2 mg/kg). each group of mice was administered according to the above doses (ig), and the blank control group was given the same volume of normal saline. Forty-five minutes later, each mouse was given (ip) 30 mg/kg pentobarbital sodium, and the number of mice falling asleep within 15 min was recorded by taking the absence of righting reflex more than 1 min as the indicator of falling asleep.

rats = assay: Physical dependence test: induced withdrawal test for the rats; settings: rat, in vivo
Experimental: The compound group was administered (ig) twice a day according to the dose increasing principle, at daily doses of 0.5, 1.0, 1.5, 2.0, 2.5, 3.0 g/kg. The dose was increased every day from 0.5 g/kg to 3.0 g/kg on day 6 which was adopted the same on day 7. The negative control group was given (ig) the same volume of vegetable oil per day at the same time and for the same times as the compound group. On day 8, the rats in each group were given naloxone (5 mg/kg, ip) to induce withdrawal, and the withdrawal status of the rats within 30 min and the weight change one hour before and after the inducement were observed. The evaluation criteria of withdrawal symptoms of rats were established by referring to the Tomoji Yanagita evaluation criteria and our pre-experimental results (see Appendix Table 17). The withdrawal scores and weight loss values of each group of rats were statistically processed. Weight loss value=weight before inducement−weight after inducement.

mice [4] = settings: mouse, in vivo; for Duration of mice staying in companion box: both, Kunming
Excerpt: A conditioned place preference box was composed of black and white cuboids (30 cm×15 cm×15 cm), a movable partition plate is arranged in the middle of the box body to divide the box into two cuboids of the same volume, and the rat and mice can freely move from one cuboid to another when the partition plate is removed. Inner surfaces of one cuboid of the box body except the glass panel is painted black, the bottom plate is made to be a rough surface by using a soft blanket, the other cuboid of the box body except the glass surface is painted white, the bottom plate is made to be a smooth surface, and the whole experimental box has visual and tactile cues.
Mice were tested for natural preference one day prior to dosing to eliminate mice with significant preference on one side of the box and to exclude the effects of unconditioned place preference on the experimental results.
Each group of animals was administered twice daily at an interval of 8 hours (8:00, 16:00). […] The mice were placed in the white cuboid, which was the non-preferred side, after administration, and placed in the black cuboid, which was the preferred side, after administration of normal saline. The mice were kept in the box for 45 min, trained for 6 days. The place preference test was performed 24 h after the last administration. The partition plate of the preferred cuboid was removed, the mice were placed in the middle of the box one by one and observed for 15 minutes, and the duration of each of the mice staying in each cuboid was recorded on the basis of the positions of their heads.

SMILES: CC1(C)O[C@H]2CC[C@@]3(C)[C@@H]([C@@H](O)[C@H](O)[C@@H]3[C@@](C)(O)CC[C@@H]3OC(C)(C)[C@H]4CC[C@]3(C)O4)[C@]2(C)CC[C@H]1O [the compound, limaxol A]
- Numbers of jumping reactions of mice (mice of n = 10) (morphine-dependent mice; d 1, high dose 0.8 g/kg ig): 10
- Numbers of jumping reactions of mice, percentage (morphine-dependent mice; d 1, high dose 0.8 g/kg ig): 100%
- Weight change: body weights of mice before and after induced withdrawal (morphine-dependent mice; d 1, high dose 0.8 g/kg ig): 0.26 ± 0.21 g
- Times of jumping reactions of mice (morphine-dependent mice; d 1, high dose 0.8 g/kg ig): 35.0 ± 12.28 per 30 min
- Numbers of jumping reactions of mice (mice of n = 10) (morphine-dependent mice; d 1, low dose 0.4 g/kg ig): 10
- Numbers of jumping reactions of mice, percentage (morphine-dependent mice; d 1, low dose 0.4 g/kg ig): 100%
- Weight change: body weights of mice before and after induced withdrawal (morphine-dependent mice; d 1, low dose 0.4 g/kg ig): 0.18 ± 0.13 g
- Times of jumping reactions of mice (morphine-dependent mice; d 1, low dose 0.4 g/kg ig): 13.5 ± 10.29 per 30 min
- Numbers of jumping reactions of mice (mice of n = 10) (morphine-dependent mice; d 3, high dose 0.8 g/kg ig): 10
- Numbers of jumping reactions of mice, percentage (morphine-dependent mice; d 3, high dose 0.8 g/kg ig): 100%
- Weight change: body weights of mice before and after induced withdrawal (morphine-dependent mice; d 3, high dose 0.8 g/kg ig): 0.43 ± 0.23 g
- Times of jumping reactions of mice (morphine-dependent mice; d 3, high dose 0.8 g/kg ig): 8.5 ± 2.68 per 30 min
- Numbers of jumping reactions of mice (mice of n = 10) (morphine-dependent mice; d 3, low dose 0.4 g/kg ig): 10
- Numbers of jumping reactions of mice, percentage (morphine-dependent mice; d 3, low dose 0.4 g/kg ig): 100%
- Weight change: body weights of mice before and after induced withdrawal (morphine-dependent mice; d 3, low dose 0.4 g/kg ig): 0.36 ± 0.28 g
- Times of jumping reactions of mice (morphine-dependent mice; d 3, low dose 0.4 g/kg ig): 6.2 ± 5.86 per 30 min
- Effect on jumping reaction during induced withdrawal (morphine-dependent mice; ig, 0.4 and 0.8 g/kg): inhibited jumping reaction
- Effect on weight loss of the morphine-dependent mice (morphine-dependent mice; ig, 0.4 and 0.8 g/kg): inhibited weight loss
- Duration of mice staying in companion box ([1]; After administration, high dose 0.8 g/kg ig 3 days + morphine 9 mg/kg sc, 15 min observation): 511.8 ± 90.66*^ΔΔ s
- Duration of mice staying in companion box ([1]; After administration, low dose 0.4 g/kg ig 3 days + morphine 9 mg/kg sc, 15 min observation): 438.1 ± 116.45^#Δ s
- Duration of mice staying in companion box ([1]; Before administration (base line), high dose 0.8 g/kg + morphine 9 mg/kg group): 256.3 ± 114.43 s
- Duration of mice staying in companion box ([1]; Before administration (base line), low dose 0.4 g/kg + morphine 9 mg/kg group): 296.0 ± 142.93 s
- Effect on conditioned place preference of the morphine-induced mice ([1]; two doses (0.4, 0.8 g/kg) ig for 3 days): no significant effect
- Times of writhing (mice [2]; high dose 0.8 g/kg ig): 39.6 ± 13.21
- Times of writhing (mice [2]; low dose 0.4 g/kg ig): 37.10 ± 15.69
- Analgesic effect, acetic acid writhing test (mice [2]; single administration 0.4, 0.8 g/kg, ig): no obvious analgesic effect
- Effect on number of mice that fell asleep, sub-threshold pentobarbital sodium (mice [3]; 0.4, 0.8 g/kg, ig): increase the number of mice that fell asleep
- Number of the mice showing disappearance of righting reflex (mice [3]; high dose 0.8 g/kg ig): 8 per group
- Number of the mice showing disappearance of righting reflex (mice [3]; low dose 0.4 g/kg ig): 11 per group
- Withdrawal symptoms after administration of the compound, rats (rats): no obvious withdrawal symptoms
- Duration of mice staying in companion box (mice [4]): 334.8 ± 94.96 s
- Duration of mice staying in companion box (mice [4]; 6 days): 385.2 ± 188.16 s
- Psychological dependence, place preference test (mice [4]): no tendency of psychological dependence
